Publication PMC5114172 (Journal of applied toxicology : JAT, 2016)

Test system: MD-PBMCs
Experiment: IL-1β secretion
Type: cell-based, human

**Q.** What does the source list for `CCC[CH2][Sn][CH2]CCC` [DBT, Dibutyltin]?
**A.** Interleukin 1 beta secreted (donor F240, 24 h, 0.05 μM DBT + Caspase-1 inhibitor II 50 μM): 337 ± 7 pg/mL; Interleukin 1 beta secreted (donor F240, 24 h, 0.05 μM DBT + U0126 50 μM): 1840 ± 95 pg/mL; fold increase in IL-1β secretion (donor F240, 24 h, 0.05 μM DBT, absence of MEK inhibitor): 1.6 fold; Interleukin 1 beta secreted (donor F240, 24 h, 0.05 μM DBT, no inhibitor (CI experiment)): 757 ± 17 pg/mL; Interleukin 1 beta secreted (donor F240, 24 h, 0.05 μM DBT, no inhibitor (U0126 experiment)): 772 ± 54 pg/mL; Interleukin 1 beta secreted (donor F240, 24 h, 0.1 μM DBT + Caspase-1 inhibitor II 50 μM): 467 ± 12 pg/mL; Interleukin 1 beta secreted (donor F240, 24 h, 0.1 μM DBT + U0126 50 μM): 1447 ± 142 pg/mL; fold increase in IL-1β secretion (donor F240, 24 h, 0.1 μM DBT, absence of MEK inhibitor): 1.6 fold; Interleukin 1 beta secreted (donor F240, 24 h, 0.1 μM DBT, no inhibitor (CI experiment)): 916 ± 67 pg/mL; Interleukin 1 beta secreted (donor F240, 24 h, 0.1 μM DBT, no inhibitor (U0126 experiment)): 812 ± 109 pg/mL; fold increase in IL-1β secretion (donor F240, 24 h, 0.05 and 0.1 μM DBT, U0126 50 μM present): no DBT-induced increases; Interleukin 1 beta secreted (donor F242, 24 h, 0.05 μM DBT + Caspase-1 inhibitor II 50 μM): 495 ± 25 pg/mL; Interleukin 1 beta secreted (donor F242, 24 h, 0.05 μM DBT + U0126 50 μM): 759 ± 10 pg/mL; Interleukin 1 beta secreted (donor F242, 24 h, 0.05 μM DBT, no inhibitor (CI experiment)): 2752 ± 49 pg/mL; Interleukin 1 beta secreted (donor F242, 24 h, 0.05 μM DBT, no inhibitor (U0126 experiment)): 2230 ± 89 pg/mL; Interleukin 1 beta secreted (donor F242, 24 h, 0.1 μM DBT + Caspase-1 inhibitor II 50 μM): 354 ± 43 pg/mL; Interleukin 1 beta secreted (donor F242, 24 h, 0.1 μM DBT + U0126 50 μM): 312 ± 27 pg/mL; Interleukin 1 beta secreted (donor F242, 24 h, 0.1 μM DBT, no inhibitor (CI experiment)): 2874 ± 77 pg/mL; Interleukin 1 beta secreted (donor F242, 24 h, 0.1 μM DBT, no inhibitor (U0126 experiment)): 2172 ± 25 pg/mL; Interleukin 1 beta secreted (donor F244, 24 h, 0.05 μM DBT + BAY 11-7085): 1107 ± 14 pg/mL; Interleukin 1 beta secreted (donor F244, 24 h, 0.05 μM DBT + Caspase-1 inhibitor II 50 μM): 334 ± 11 pg/mL; Interleukin 1 beta secreted (donor F244, 24 h, 0.05 μM DBT + U0126 50 μM): 61 ± 23 pg/mL; fold increase in IL-1β secretion (donor F244, 24 h, 0.05 μM DBT, BAY 11-7085 present): 1.3 fold; fold increase in IL-1β secretion (donor F244, 24 h, 0.05 μM DBT, absence of NFκB inhibitor): 1.2 fold; Interleukin 1 beta secreted (donor F244, 24 h, 0.05 μM DBT, no inhibitor (BAY experiment)): 947 ± 29 pg/mL; Interleukin 1 beta secreted (donor F244, 24 h, 0.05 μM DBT, no inhibitor (CI experiment)): 1291 ± 34 pg/mL; Interleukin 1 beta secreted (donor F244, 24 h, 0.05 μM DBT, no inhibitor (U0126 experiment)): 1764 ± 62 pg/mL; Interleukin 1 beta secreted (donor F244, 24 h, 0.1 μM DBT + BAY 11-7085): 1067 ± 19 pg/mL; Interleukin 1 beta secreted (donor F244, 24 h, 0.1 μM DBT + Caspase-1 inhibitor II 50 μM): 302 ± 3 pg/mL; Interleukin 1 beta secreted (donor F244, 24 h, 0.1 μM DBT + U0126 50 μM): 143 ± 50 pg/mL; fold increase in IL-1β secretion (donor F244, 24 h, 0.1 μM DBT, BAY 11-7085 present): 1.3 fold; fold increase in IL-1β secretion (donor F244, 24 h, 0.1 μM DBT, absence of NFκB inhibitor): 1.3 fold; Interleukin 1 beta secreted (donor F244, 24 h, 0.1 μM DBT, no inhibitor (BAY experiment)): 1029 ± 59 pg/mL; Interleukin 1 beta secreted (donor F244, 24 h, 0.1 μM DBT, no inhibitor (CI experiment)): 1444 ± 43 pg/mL; Interleukin 1 beta secreted (donor F244, 24 h, 0.1 μM DBT, no inhibitor (U0126 experiment)): 2001 ± 184 pg/mL; Interleukin 1 beta secreted (donor F245, 24 h, 0.05 μM DBT + BAY 11-7085): 630 ± 60 pg/mL; Interleukin 1 beta secreted (donor F245, 24 h, 0.05 μM DBT + Caspase-1 inhibitor II 50 μM): 216 ± 19 pg/mL; Interleukin 1 beta secreted (donor F245, 24 h, 0.05 μM DBT + U0126 50 μM): 277 ± 8 pg/mL; fold increase in IL-1β secretion (donor F245, 24 h, 0.05 μM DBT, Caspase-1 inhibitor II 50 μM present): 1.4 fold; fold increase in IL-1β secretion (donor F245, 24 h, 0.05 μM DBT, absence of Caspase-1 inhibitor): 1.8 fold; Interleukin 1 beta secreted (donor F245, 24 h, 0.05 μM DBT, no inhibitor (BAY experiment)): 883 ± 66 pg/mL; Interleukin 1 beta secreted (donor F245, 24 h, 0.05 μM DBT, no inhibitor (CI experiment)): 1399 ± 20 pg/mL; Interleukin 1 beta secreted (donor F245, 24 h, 0.05 μM DBT, no inhibitor (U0126 experiment)): 1174 ± 49 pg/mL; Interleukin 1 beta secreted (donor F245, 24 h, 0.1 μM DBT + BAY 11-7085): 514 ± 80 pg/mL; Interleukin 1 beta secreted (donor F245, 24 h, 0.1 μM DBT + Caspase-1 inhibitor II 50 μM): 163 ± 10 pg/mL; Interleukin 1 beta secreted (donor F245, 24 h, 0.1 μM DBT + U0126 50 μM): 231 ± 14 pg/mL; fold increase in IL-1β secretion (donor F245, 24 h, 0.1 μM DBT, Caspase-1 inhibitor II 50 μM present): no increase; fold increase in IL-1β secretion (donor F245, 24 h, 0.1 μM DBT, absence of Caspase-1 inhibitor): 1.8 fold; Interleukin 1 beta secreted (donor F245, 24 h, 0.1 μM DBT, no inhibitor (BAY experiment)): 1206 ± 91 pg/mL; Interleukin 1 beta secreted (donor F245, 24 h, 0.1 μM DBT, no inhibitor (CI experiment)): 1375 ± 18 pg/mL; Interleukin 1 beta secreted (donor F245, 24 h, 0.1 μM DBT, no inhibitor (U0126 experiment)): 1246 ± 65 pg/mL; Interleukin 1 beta secreted (donor F247, 24 h, 0.05 μM DBT + SB202190): 1495 ± 134 pg/mL; fold increase in IL-1β secretion (donor F247, 24 h, 0.05 μM DBT, absence of p38 inhibitor): 7.2 fold; Interleukin 1 beta secreted (donor F247, 24 h, 0.05 μM DBT, no inhibitor (SB202190 experiment)): 1378 ± 246 pg/mL; Interleukin 1 beta secreted (donor F247, 24 h, 0.1 μM DBT + SB202190): 1329 ± 99 pg/mL; fold increase in IL-1β secretion (donor F247, 24 h, 0.1 μM DBT, absence of p38 inhibitor): 2.5 fold; Interleukin 1 beta secreted (donor F247, 24 h, 0.1 μM DBT, no inhibitor (SB202190 experiment)): 477 ± 60 pg/mL; fold increase in IL-1β secretion (donor F247, 24 h, 0.05 and 0.1 μM DBT, SB202190 present): no increases; Interleukin 1 beta secreted (donor F254, 24 h, 0.05 μM DBT + Caspase-1 inhibitor II 50 μM): 41 ± 9 pg/mL; Interleukin 1 beta secreted (donor F254, 24 h, 0.05 μM DBT, no inhibitor (CI experiment)): 521 ± 62 pg/mL; Interleukin 1 beta secreted (donor F254, 24 h, 0.1 μM DBT + Caspase-1 inhibitor II 50 μM): 17 ± 16 pg/mL; Interleukin 1 beta secreted (donor F254, 24 h, 0.1 μM DBT, no inhibitor (CI experiment)): 206 ± 2 pg/mL; Interleukin 1 beta secreted (donor F262, 24 h, 0.05 μM DBT + SB202190): 146 ± 8 pg/mL; Interleukin 1 beta secreted (donor F262, 24 h, 0.05 μM DBT, no inhibitor (SB202190 experiment)): 1100 ± 58 pg/mL; Interleukin 1 beta secreted (donor F262, 24 h, 0.1 μM DBT + SB202190): 134 ± 183 pg/mL; Interleukin 1 beta secreted (donor F262, 24 h, 0.1 μM DBT, no inhibitor (SB202190 experiment)): 1021 ± 61 pg/mL; Interleukin 1 beta secreted (donor F333, 24 h, 0.05 μM DBT + BAY 11-7085): 2518 ± 60 pg/mL; Interleukin 1 beta secreted (donor F333, 24 h, 0.05 μM DBT, no inhibitor (BAY experiment)): 3995 ± 161 pg/mL; Interleukin 1 beta secreted (donor F333, 24 h, 0.1 μM DBT + BAY 11-7085): 1960 ± 102 pg/mL; Interleukin 1 beta secreted (donor F333, 24 h, 0.1 μM DBT, no inhibitor (BAY experiment)): 2755 ± 84 pg/mL; Interleukin 1 beta secreted (donor F334, 24 h, 0.05 μM DBT + BAY 11-7085): 1035 ± 19 pg/mL; Interleukin 1 beta secreted (donor F334, 24 h, 0.05 μM DBT, no inhibitor (BAY experiment)): 2281 ± 53 pg/mL; Interleukin 1 beta secreted (donor F334, 24 h, 0.1 μM DBT + BAY 11-7085): 702 ± 82 pg/mL; Interleukin 1 beta secreted (donor F334, 24 h, 0.1 μM DBT, no inhibitor (BAY experiment)): 1468 ± 94 pg/mL; Interleukin 1 beta secreted (donor F372, 24 h, 0.05 μM DBT + SB202190): 348 ± 198 pg/mL; Interleukin 1 beta secreted (donor F372, 24 h, 0.05 μM DBT, no inhibitor (SB202190 experiment)): 2388 ± 322 pg/mL; Interleukin 1 beta secreted (donor F372, 24 h, 0.1 μM DBT + SB202190): 70 ± 14 pg/mL
